Test [1] deals with Akt phosphorylated at Thr308 in PC-3 cells. Briefly: Cellular assay: phosphorylation of Akt at Thr308 in PC-3 cells (MSD ELISA). In kind it is cell-based. The following applies: PC-3 cells, 60 min compound incubation, MSD ELISA, read-out: IC50 pAkt_Thr308. In outline:
(§1)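 Electrochemiluminescent sandwich ELISA read-out: phospho-specific capture (Ser473 or Thr308), Sulfo-tag anti-total Akt detection, signal proportional to phospho-Akt. Cells treated 60 min at 37° C with compound, DMSO 0.3%. IC50 fitted from five concentrations.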
(In an ELISA, binding on a coated surface is turned into a signal by an enzyme label.)

Another test concerns the target T1, PI3Kδ (Homo sapiens, UniProt O00329).
T1 construct: purchased DiscoveRx Corporation, San Diego (contract service, KINOMEscan)
T1 sequence (O00329 1-1044): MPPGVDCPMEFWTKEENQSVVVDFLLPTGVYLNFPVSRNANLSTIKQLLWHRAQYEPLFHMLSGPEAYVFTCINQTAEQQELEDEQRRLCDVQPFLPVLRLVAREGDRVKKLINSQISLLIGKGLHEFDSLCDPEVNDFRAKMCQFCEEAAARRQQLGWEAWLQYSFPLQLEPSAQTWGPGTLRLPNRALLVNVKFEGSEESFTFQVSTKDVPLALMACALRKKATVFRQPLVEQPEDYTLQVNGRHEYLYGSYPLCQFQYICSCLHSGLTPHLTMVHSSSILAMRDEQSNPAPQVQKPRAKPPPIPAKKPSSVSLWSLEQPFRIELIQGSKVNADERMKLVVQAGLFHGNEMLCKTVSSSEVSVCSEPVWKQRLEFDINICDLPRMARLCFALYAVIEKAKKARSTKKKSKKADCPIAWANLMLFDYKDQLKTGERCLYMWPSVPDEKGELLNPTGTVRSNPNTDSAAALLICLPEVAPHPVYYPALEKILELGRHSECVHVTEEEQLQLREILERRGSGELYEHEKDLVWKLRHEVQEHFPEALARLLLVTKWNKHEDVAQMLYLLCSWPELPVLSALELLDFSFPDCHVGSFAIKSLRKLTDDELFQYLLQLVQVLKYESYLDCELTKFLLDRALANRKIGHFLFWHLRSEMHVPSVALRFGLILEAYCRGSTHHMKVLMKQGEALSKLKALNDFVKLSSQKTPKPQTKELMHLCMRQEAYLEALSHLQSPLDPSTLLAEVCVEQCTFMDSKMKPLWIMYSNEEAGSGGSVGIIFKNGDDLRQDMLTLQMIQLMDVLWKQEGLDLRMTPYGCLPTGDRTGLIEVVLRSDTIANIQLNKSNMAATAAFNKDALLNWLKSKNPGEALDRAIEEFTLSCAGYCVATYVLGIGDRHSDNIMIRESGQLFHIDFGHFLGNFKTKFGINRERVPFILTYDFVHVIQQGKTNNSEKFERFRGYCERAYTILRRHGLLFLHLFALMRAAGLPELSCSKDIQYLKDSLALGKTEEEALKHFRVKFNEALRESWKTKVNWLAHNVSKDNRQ
Description: Enzyme binding assay (KINOMEscan, DiscoveRx). The note with it: PIK3Cδ_h. In outline:
(§2)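 Affinity for each kinase was determined by KINOMEscan profiling.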

Test [2] addresses T2, kinase enzymes (Homo sapiens, UniProt P42336).
T2 construct: purchased DiscoveRx Corporation, San Diego (contract service, KINOMEscan)
Description: Enzyme binding assay (KINOMEscan, DiscoveRx), further kinases of Table A. The note with it: PIK3Cα_h. In outline: as §2

In test [3] the target is T3, kinase enzymes (Homo sapiens, UniProt P42345).
T3 construct: purchased DiscoveRx Corporation, San Diego (contract service, KINOMEscan)
Described as above. The following applies: MTOR_h. Put shortly:
as §2

Test [4] addresses T4, kinase enzymes (Homo sapiens, UniProt P48736).
T4 construct: purchased DiscoveRx Corporation, San Diego (contract service, KINOMEscan)
The test is described as above. The note with it: PIK3Cγ_h. In outline:
as §2

The subject of test [5] is Akt phosphorylated at Ser473 in PC-3 cells. Description: Cellular assay: phosphorylation of Akt at Ser473 in PC-3 cells (MSD ELISA). The format is cell-based. The following applies: PC-3 cells, 60 min compound incubation, MSD ELISA, read-out: IC50 pAkt_S473. In outline:
as §1

Another test concerns the target T5, PI3Kβ (Homo sapiens, UniProt P42338).
T5 construct: purchased DiscoveRx Corporation, San Diego (contract service, KINOMEscan)
Briefly: Enzyme binding assay (KINOMEscan, DiscoveRx). The following applies: PIK3Cβ_h, read-out: Kd PIK3Cβ_h. Put shortly:
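Values are Kd in nM, the binding constant of each inhibitor for the kinase, obtained from a KINOMEscan enzyme binding assay.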

Like-named read-outs stand apart in the source and are kept apart here.

The source of these data is US10526316B2, “Quinoxaline and pyridopyrazine derivatives as PI3Kβ inhibitors” (Janssen Pharmaceutica NV, priority 2015, dated 2020).

T5 sequence (P42338 whole entry): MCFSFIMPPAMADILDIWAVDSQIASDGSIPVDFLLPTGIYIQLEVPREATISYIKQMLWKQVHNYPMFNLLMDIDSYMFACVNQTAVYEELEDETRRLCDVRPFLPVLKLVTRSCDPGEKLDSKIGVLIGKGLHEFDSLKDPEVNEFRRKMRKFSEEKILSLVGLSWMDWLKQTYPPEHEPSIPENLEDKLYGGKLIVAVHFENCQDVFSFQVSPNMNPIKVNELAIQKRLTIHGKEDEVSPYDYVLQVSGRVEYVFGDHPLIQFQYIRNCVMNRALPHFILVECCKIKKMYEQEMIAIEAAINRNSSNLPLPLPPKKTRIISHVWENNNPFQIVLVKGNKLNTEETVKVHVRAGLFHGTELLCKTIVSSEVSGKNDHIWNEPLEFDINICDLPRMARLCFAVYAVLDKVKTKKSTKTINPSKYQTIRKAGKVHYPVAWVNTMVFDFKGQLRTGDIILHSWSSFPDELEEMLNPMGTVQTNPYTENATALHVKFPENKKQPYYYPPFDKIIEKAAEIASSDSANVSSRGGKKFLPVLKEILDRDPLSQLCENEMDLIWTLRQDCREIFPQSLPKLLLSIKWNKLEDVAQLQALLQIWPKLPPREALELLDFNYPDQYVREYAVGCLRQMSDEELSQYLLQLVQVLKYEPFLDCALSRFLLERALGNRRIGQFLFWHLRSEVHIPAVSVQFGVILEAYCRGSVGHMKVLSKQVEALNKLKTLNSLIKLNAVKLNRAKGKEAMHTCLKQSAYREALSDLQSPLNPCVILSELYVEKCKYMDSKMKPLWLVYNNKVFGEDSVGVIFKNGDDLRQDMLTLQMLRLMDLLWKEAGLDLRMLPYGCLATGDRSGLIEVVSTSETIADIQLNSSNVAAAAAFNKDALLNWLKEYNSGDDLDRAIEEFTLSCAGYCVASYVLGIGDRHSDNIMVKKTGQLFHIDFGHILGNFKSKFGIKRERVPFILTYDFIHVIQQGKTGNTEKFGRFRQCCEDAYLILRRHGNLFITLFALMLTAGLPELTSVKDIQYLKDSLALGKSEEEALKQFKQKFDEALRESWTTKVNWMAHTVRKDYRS
T4 sequence (P48736 whole entry): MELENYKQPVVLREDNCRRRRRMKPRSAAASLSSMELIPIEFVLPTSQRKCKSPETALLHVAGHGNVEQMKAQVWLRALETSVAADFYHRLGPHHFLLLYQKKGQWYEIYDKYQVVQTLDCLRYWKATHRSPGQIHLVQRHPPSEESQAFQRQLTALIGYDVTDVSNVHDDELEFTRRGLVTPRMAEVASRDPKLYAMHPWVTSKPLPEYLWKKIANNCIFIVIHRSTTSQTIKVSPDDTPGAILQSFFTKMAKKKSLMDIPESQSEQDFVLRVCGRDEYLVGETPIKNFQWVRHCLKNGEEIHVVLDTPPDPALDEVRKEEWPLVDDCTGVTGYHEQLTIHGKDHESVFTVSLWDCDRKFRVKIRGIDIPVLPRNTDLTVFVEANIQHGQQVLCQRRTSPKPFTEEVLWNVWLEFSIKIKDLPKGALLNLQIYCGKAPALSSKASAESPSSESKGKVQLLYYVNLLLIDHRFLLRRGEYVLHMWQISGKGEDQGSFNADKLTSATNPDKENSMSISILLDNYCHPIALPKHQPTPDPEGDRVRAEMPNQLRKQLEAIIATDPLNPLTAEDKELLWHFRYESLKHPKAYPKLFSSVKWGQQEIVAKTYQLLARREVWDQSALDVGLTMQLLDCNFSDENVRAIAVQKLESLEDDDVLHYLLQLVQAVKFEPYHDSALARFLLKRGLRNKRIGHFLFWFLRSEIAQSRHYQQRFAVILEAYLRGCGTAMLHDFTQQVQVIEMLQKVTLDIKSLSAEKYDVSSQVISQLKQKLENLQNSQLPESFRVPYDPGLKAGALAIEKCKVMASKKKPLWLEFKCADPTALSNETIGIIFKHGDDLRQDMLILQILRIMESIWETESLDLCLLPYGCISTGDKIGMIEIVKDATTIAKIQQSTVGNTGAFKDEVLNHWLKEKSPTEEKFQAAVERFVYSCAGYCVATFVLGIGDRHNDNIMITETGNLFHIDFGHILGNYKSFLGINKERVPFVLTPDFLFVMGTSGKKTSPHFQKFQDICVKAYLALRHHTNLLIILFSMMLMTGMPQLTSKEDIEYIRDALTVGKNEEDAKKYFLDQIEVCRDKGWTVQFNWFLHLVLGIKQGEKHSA
T2 sequence (P42336 whole entry): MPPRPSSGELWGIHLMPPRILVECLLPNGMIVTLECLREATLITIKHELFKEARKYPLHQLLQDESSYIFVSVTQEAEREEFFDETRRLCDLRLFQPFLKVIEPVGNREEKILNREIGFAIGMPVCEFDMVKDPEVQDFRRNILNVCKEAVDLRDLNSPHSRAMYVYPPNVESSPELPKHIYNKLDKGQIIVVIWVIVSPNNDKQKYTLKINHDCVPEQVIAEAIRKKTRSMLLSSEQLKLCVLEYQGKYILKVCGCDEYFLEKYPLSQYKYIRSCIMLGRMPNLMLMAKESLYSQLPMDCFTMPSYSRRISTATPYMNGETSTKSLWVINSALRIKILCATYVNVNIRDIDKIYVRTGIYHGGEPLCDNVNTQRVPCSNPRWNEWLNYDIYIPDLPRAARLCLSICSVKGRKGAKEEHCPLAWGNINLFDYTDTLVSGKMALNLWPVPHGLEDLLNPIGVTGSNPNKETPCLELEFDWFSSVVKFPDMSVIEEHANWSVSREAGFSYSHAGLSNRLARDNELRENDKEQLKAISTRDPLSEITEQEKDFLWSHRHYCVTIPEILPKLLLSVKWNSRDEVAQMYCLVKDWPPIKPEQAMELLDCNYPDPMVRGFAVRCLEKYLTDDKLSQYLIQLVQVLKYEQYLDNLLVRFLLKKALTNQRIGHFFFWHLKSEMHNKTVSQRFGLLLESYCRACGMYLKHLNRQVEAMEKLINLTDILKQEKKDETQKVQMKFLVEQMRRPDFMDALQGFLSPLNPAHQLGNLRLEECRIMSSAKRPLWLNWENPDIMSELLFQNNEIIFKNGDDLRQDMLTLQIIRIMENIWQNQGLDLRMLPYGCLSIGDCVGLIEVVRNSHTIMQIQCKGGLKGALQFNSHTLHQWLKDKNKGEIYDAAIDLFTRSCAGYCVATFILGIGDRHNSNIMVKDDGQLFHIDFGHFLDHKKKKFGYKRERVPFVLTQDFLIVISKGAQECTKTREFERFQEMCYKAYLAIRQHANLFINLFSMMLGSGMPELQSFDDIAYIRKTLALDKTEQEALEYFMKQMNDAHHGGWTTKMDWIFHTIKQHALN

With `CC(Nc1cc(F)c(F)c(F)c1)c1cc(C(=O)NCCN(C)C)cc2ncc(N3CCOCC3)nc12` (single isomer, unassigned) [Compound 309a], the results for the IC50 in test [1] and in test [5] were 8 nM and 9 nM, respectively. Further, the dissociation constant Kd was determined as 59 nM at PI3Kδ; 1100 nM at kinase enzymes [2]; 20000 nM on kinase enzymes [3]; 1740 nM on kinase enzymes [4]; 0.1 nM at PI3Kβ.

Turning to `CN[C@H]1CCN(C(=O)c2cc(C(C)Nc3ccc(F)c(F)c3)c3nc(N4CCOCC4)cnc3c2)C1` (single isomer, unassigned) [Compound 365a], the IC50 in test [1] (Homo sapiens, PC-3, 1 h) was found to be 35 nM; in test [5] (Homo sapiens, PC-3, 1 h) it was 52 nM. The Kd on PI3Kδ is 204 nM; on kinase enzymes [2], 5250 nM; on kinase enzymes [3], greater than 30200 nM; at kinase enzymes [4] it was 10200 nM; on PI3Kβ it was 1 nM.

Regarding `CC(Nc1cc(F)cc(F)c1)c1cc(C(=O)NS(N)(=O)=O)cc2ncc(N3CCOCC3)nc12` (stereo not drawn) [Compound 243], the IC50 is greater than 513 nM in test [1] (Homo sapiens, PC-3, 1 h) and greater than 513 nM in test [5] (Homo sapiens, PC-3, 1 h). The Kd at PI3Kδ amounted to 71 nM; at kinase enzymes [2], 66 nM; on kinase enzymes [3], 1910 nM; at kinase enzymes [4], 145 nM; at PI3Kβ, 1 nM.

Turning to `Cc1c(F)cccc1NCc1cc(C(=O)NCCO)cc2ncc(N3CCOCC3)nc12` [Compound 381], the IC50 was determined as 117 nM in test [1] (Homo sapiens, PC-3, 1 h) and 209 nM in test [5] (Homo sapiens, PC-3, 1 h). In addition, the Kd on PI3Kδ was 3800 nM; at kinase enzymes [2], 3550 nM; on kinase enzymes [3] it was greater than 30200 nM; on kinase enzymes [4], 8320 nM; at PI3Kβ, 26 nM.

As to `CC(Oc1ccc(Cl)c(F)c1)c1cc(C(=O)N(C)CCN(C)C)cc2ncc(N3CCOCC3)nc12` (single isomer, unassigned) [Compound 313a], the IC50 in test [1] worked out at 166 nM; in test [5] (Homo sapiens, PC-3, 1 h), 257 nM. Also, the Kd on PI3Kδ was 851 nM; on kinase enzymes [2], 5010 nM; at kinase enzymes [3], greater than 30200 nM; at kinase enzymes [4], 26300 nM; on PI3Kβ, 3 nM.

Regarding `Cc1c(F)cccc1CN(C)c1cc(C(=O)N(C)[C@@H]2CCNC2)cc2ncc(N3CCOCC3)nc12` [Compound 359], the IC50 was greater than 513 nM in test [1] (Homo sapiens, PC-3, 1 h) and greater than 513 nM in test [5] (Homo sapiens, PC-3, 1 h). In addition, the Kd on PI3Kδ was found to be 796 nM; on kinase enzymes [2], 11300 nM; at kinase enzymes [3] it was 6460 nM; on kinase enzymes [4], 28800 nM; at PI3Kβ, 43 nM.

For the compound `CC(Oc1cc(F)ccc1NCCN)c1cc(C(=O)N(C)C)cc2ncc(N3CCOCC3)nc12` (stereo not drawn) [Compound 79], the IC50 is 123 nM in test [1] (Homo sapiens, PC-3, 1 h) and 158 nM in test [5] (Homo sapiens, PC-3, 1 h). Further, the Kd at PI3Kδ was 204 nM; at kinase enzymes [2], 2290 nM; on kinase enzymes [3], greater than 30200 nM; on kinase enzymes [4], 20000 nM; at PI3Kβ, 2 nM.

For the compound `Fc1cc(F)cc(N2CCCC2c2cncc3ncc(N4CCOCC4)nc23)c1` (stereo not drawn) [Compound 23], the IC50 in test [1] (Homo sapiens, PC-3, 1 h) is 42 nM; in test [5] (Homo sapiens, PC-3, 1 h), roughly 68 nM. For the same compound, the Kd turned out to be 331 nM at PI3Kδ; 324 nM at kinase enzymes [2]; 15100 nM on kinase enzymes [3]; 724 nM on kinase enzymes [4]; 1 nM on PI3Kβ.

As to `C[C@@H]1CN(c2cnc3cc(C(=O)N(C)C)cc(C4CCCN4c4cccc(F)c4)c3n2)CCO1` (single isomer, unassigned) [Compound 30], the IC50 is roughly 4 nM in test [1] and 5 nM in test [5]. Moreover, the Kd came to 18 nM at PI3Kδ; 39 nM at kinase enzymes [2]; 21900 nM at kinase enzymes [3]; 407 nM at kinase enzymes [4]; 1 nM at PI3Kβ.

In the case of `Cc1c(CNc2cc(C(=O)NCCO)cc3ncc(N4CCOCC4)nc23)cccc1C(F)(F)F` [Compound 231], the IC50 is 398 nM in test [1] (Homo sapiens, PC-3, 1 h) and roughly 457 nM in test [5] (Homo sapiens, PC-3, 1 h). The dissociation constant (Kd) on PI3Kδ was greater than 3310 nM; at kinase enzymes [2], 17000 nM; at kinase enzymes [3], greater than 10000 nM; at kinase enzymes [4] it was greater than 30200 nM; on PI3Kβ, 52 nM.

For the compound `CC(Oc1ccc(F)c(F)c1)c1cc(C(=O)NCCN(C)C)cc2ncc(N3CCOCC3)nc12` (single isomer, unassigned) [Compound 299a], the IC50 in test [1] was 56 nM; in test [5] it was roughly 45 nM. In addition, the Kd at PI3Kδ was 269 nM; on kinase enzymes [2] it was 6310 nM; at kinase enzymes [3] it was greater than 30200 nM; at kinase enzymes [4], 11000 nM; on PI3Kβ, 1 nM.

For the compound `CC(Nc1ccc(F)c(F)c1)c1cc(C(=O)NCCN(C)C)cc2ncc(N3CCOCC3)nc12` (single isomer, unassigned) [Compound 281b], the IC50 in test [1] and in test [5] was greater than 513 nM each time. In addition, the Kd on PI3Kδ is 3470 nM; on kinase enzymes [2], 6170 nM; on kinase enzymes [3] it was greater than 30200 nM; on kinase enzymes [4], 7410 nM; on PI3Kβ it was 151 nM.

Take `CN[C@H]1CCN(C(=O)c2cc(C(C)Nc3cc(F)c(F)c(F)c3)c3nc(N4CCOCC4)cnc3c2)C1` (single isomer, unassigned) [Compound 297b]: the figures for the IC50 in test [1] and in test [5] were 3 nM and 7 nM, respectively. In addition, the Kd on PI3Kδ is 112 nM; at kinase enzymes [2], 1020 nM; on kinase enzymes [3], greater than 30200 nM; at kinase enzymes [4] it was 1480 nM; at PI3Kβ it was 0.5 nM.

For `CNCCN(C)C(=O)c1cc(C(C)Nc2cc(F)c(F)c(F)c2)c2nc(N3CCOCC3)cnc2c1` (single isomer, unassigned) [Compound 335a], the IC50 in test [1] was 2 nM; in test [5], 5 nM. Also, the Kd at PI3Kδ stood at 33 nM; on kinase enzymes [2], 466 nM; on kinase enzymes [3], 18600 nM; on kinase enzymes [4], 1220 nM; on PI3Kβ it was 0.2 nM.

With `CC(C)NCCNC(=O)c1cc(C(C)Nc2ccc(F)c(F)c2)c2nc(N3CCOCC3)cnc2c1` (single isomer, unassigned) [Compound 364a], the IC50 in test [1] was 26 nM; in test [5] it was 35 nM. Moreover, the Kd at PI3Kδ is 204 nM; on kinase enzymes [2] it was 2460 nM; on kinase enzymes [3], greater than 30200 nM; on kinase enzymes [4] it was 6920 nM; at PI3Kβ, 1 nM.

For the compound `CC(Nc1cc(F)cc(F)c1)c1cc(C(=O)NCCO)cc2ncc(N3CCOCC3)nc12` (single isomer, unassigned) [Compound 189], the IC50 in test [1] and in test [5] was greater than 513 nM each time. Also, the Kd on PI3Kδ was 28200 nM; on kinase enzymes [2], greater than 30200 nM; on kinase enzymes [3], greater than 30200 nM; on kinase enzymes [4], 4470 nM; on PI3Kβ it was 2510 nM.

For the compound `COC(=O)c1cc(C(C)Nc2cc(F)cc(Cl)c2)c2nc(N3CCOCC3)cnc2c1` (stereo not drawn) [Compound 99], the IC50 in test [1] (Homo sapiens, PC-3, 1 h) is 355 nM; in test [5] (Homo sapiens, PC-3, 1 h) it was greater than 513 nM. In addition, the Kd is 4680 nM at PI3Kδ; 9770 nM at kinase enzymes [2]; greater than 30200 nM on kinase enzymes [3]; 11500 nM at kinase enzymes [4]; 52 nM on PI3Kβ.

With `O=C(NCCO)c1cc(N2CCCC2c2cc(F)cc(F)c2)c2nc(N3CCOCC3)cnc2c1` (single isomer, unassigned) [Compound 244], the IC50 in test [1] (Homo sapiens, PC-3, 1 h) was greater than 513 nM; in test [5] (Homo sapiens, PC-3, 1 h) it was greater than 513 nM. The Kd on PI3Kδ was found to be 4170 nM; at kinase enzymes [2], 8320 nM; at kinase enzymes [3] it was 20000 nM; at kinase enzymes [4] it was 12600 nM; on PI3Kβ it was 741 nM.

As usually defined, the IC50 is the point on the concentration scale where inhibition reaches its midpoint. A word on the Kd: it is the equilibrium constant for the complex coming apart.
